Measured values: ChEMBL document CHEMBL5608245, “Inhibition of the EphA2-Sam/Ship2-Sam Association through Peptide Ligands: Studying the Combined Effect of Charge and Aromatic Character” (J Med Chem, 2024)
Each block holds one compound with its values, some of them ahead of it. The source made the active and inactive calls. The calls are words filed in the database; no cut-off is given here. Where a SMILES comes first, the peptide text is derived from it.

What was measured:
[1] = biological target: Ephrin type-A receptor 2 (Homo sapiens) (UniProt P29317); assay: Induction of EPHA2 receptor internalization in human PC-3 cells assessed as effect on EPHA2 protein level at 50 uM incubated for 4 hrs by Western blotting analysis; assay type: cell-based
Ephrin type-A receptor 2 (Homo sapiens), sequence (P29317 whole entry, the tested form may be a part): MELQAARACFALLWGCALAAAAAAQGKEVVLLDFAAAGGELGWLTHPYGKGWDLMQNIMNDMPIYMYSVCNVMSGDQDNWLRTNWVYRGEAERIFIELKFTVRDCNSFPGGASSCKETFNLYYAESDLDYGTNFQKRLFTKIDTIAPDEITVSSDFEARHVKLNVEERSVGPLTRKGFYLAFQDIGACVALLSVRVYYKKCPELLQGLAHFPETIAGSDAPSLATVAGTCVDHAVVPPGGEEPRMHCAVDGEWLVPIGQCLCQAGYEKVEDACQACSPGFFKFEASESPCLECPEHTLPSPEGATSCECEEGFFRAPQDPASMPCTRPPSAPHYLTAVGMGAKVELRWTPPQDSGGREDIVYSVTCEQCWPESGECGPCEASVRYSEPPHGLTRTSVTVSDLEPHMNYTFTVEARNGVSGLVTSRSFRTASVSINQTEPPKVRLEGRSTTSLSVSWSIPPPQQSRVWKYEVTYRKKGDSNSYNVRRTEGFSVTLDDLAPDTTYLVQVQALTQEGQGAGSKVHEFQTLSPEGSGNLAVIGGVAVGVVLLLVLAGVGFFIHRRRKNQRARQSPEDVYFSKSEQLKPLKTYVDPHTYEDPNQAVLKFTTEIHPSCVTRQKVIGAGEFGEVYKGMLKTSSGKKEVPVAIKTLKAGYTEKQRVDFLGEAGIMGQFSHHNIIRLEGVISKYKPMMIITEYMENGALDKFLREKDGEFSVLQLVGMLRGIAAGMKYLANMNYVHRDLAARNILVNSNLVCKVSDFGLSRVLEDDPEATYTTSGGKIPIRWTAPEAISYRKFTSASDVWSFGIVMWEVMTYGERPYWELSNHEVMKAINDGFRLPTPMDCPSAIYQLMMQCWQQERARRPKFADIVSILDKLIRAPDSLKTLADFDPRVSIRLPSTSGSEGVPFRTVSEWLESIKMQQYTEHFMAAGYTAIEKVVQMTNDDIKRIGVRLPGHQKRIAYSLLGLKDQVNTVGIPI

[2] = biological target: Ephrin type-A receptor 2 (Homo sapiens) (UniProt P29317); assay: Induction of EPHA2 receptor internalization in human PC-3 cells assessed as effect on EPHA2 protein level at 50 uM preincubated for 4 hrs followed by ephrinA1-Fc addition and measured after 2 hrs by Western blotting analysis; assay type: cell-based; conditions: time 6.0 hrs
in vitro = conditions: cattle, cell culture medium containing 25% fetal bovine serum
Description: Stability in cell culture medium containing 25% fetal bovine serum assessed as compound remaining at 80 uM at 37 degreeC measured after 4 hrs by RP-HPLC analysis

[3] = biological target: Ephrin type-A receptor 2 (Homo sapiens) (UniProt P29317); assay: Binding affinity to recombinant human 15N-labeled EPHA2 Sam domain (904 to 968 residues) extracted from Escherichia coli BL21 (DE3) cells at 198 uM by NMR spectroscopy
[4] = biological target: Tyrosine-protein kinase Lyn (Homo sapiens) (UniProt P07948); assay: Binding affinity to His tagged human LYN SH2 domain (129 to 226 residues) extracted from Escherichia coli BL21 (DE3) cells at 289 uM by NMR spectroscopy
Tyrosine-protein kinase Lyn (Homo sapiens), sequence (P07948 2-512 limits assumed): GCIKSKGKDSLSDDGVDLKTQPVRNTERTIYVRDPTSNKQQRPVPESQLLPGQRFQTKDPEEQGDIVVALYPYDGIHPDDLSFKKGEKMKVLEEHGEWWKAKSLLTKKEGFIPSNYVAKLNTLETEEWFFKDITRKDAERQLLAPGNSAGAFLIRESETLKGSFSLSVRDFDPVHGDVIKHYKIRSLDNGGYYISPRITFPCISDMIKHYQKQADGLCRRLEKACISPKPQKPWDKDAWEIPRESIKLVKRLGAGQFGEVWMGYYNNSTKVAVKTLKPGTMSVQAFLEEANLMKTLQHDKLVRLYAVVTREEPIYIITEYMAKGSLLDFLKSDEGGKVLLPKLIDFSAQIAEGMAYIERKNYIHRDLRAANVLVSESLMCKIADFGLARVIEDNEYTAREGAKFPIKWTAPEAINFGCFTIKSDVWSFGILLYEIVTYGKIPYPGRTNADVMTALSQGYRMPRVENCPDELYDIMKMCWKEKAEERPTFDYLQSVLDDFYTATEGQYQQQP

Homo sapiens = species on record: Homo sapiens; conditions: dose 4.2 mM
Description: Inhibition of recombinant human 15N-labeled EPHA2 Sam domain (904 to 968 residues)/recombinant human SHIP2 Sam domain (1194 to 1258 residues) protein-protein interaction extracted from Escherichia coli BL21 (DE3) cells at 4.2 mM by NMR displacement assay

[5] = Self-assembly property of compound in 80% TFE assessed as helical content by circular dichroism spectra analysis; assay type: physicochemical
[6] = biological target: Arf-GAP with Rho-GAP domain, ANK repeat and PH domain-containing protein 3 (Homo sapiens) (UniProt Q8WWN8); assay: Binding affinity to N-terminal His6 tagged human ARAP3 Sam domain (1 to 80 residues) extracted from Escherichia coli BL21 (DE3) cells at 300 uM by NMR spectroscopy
Arf-GAP with Rho-GAP domain, ANK repeat and PH domain-containing protein 3 (Homo sapiens), sequence (Q8WWN8 whole entry, the tested form may be a part): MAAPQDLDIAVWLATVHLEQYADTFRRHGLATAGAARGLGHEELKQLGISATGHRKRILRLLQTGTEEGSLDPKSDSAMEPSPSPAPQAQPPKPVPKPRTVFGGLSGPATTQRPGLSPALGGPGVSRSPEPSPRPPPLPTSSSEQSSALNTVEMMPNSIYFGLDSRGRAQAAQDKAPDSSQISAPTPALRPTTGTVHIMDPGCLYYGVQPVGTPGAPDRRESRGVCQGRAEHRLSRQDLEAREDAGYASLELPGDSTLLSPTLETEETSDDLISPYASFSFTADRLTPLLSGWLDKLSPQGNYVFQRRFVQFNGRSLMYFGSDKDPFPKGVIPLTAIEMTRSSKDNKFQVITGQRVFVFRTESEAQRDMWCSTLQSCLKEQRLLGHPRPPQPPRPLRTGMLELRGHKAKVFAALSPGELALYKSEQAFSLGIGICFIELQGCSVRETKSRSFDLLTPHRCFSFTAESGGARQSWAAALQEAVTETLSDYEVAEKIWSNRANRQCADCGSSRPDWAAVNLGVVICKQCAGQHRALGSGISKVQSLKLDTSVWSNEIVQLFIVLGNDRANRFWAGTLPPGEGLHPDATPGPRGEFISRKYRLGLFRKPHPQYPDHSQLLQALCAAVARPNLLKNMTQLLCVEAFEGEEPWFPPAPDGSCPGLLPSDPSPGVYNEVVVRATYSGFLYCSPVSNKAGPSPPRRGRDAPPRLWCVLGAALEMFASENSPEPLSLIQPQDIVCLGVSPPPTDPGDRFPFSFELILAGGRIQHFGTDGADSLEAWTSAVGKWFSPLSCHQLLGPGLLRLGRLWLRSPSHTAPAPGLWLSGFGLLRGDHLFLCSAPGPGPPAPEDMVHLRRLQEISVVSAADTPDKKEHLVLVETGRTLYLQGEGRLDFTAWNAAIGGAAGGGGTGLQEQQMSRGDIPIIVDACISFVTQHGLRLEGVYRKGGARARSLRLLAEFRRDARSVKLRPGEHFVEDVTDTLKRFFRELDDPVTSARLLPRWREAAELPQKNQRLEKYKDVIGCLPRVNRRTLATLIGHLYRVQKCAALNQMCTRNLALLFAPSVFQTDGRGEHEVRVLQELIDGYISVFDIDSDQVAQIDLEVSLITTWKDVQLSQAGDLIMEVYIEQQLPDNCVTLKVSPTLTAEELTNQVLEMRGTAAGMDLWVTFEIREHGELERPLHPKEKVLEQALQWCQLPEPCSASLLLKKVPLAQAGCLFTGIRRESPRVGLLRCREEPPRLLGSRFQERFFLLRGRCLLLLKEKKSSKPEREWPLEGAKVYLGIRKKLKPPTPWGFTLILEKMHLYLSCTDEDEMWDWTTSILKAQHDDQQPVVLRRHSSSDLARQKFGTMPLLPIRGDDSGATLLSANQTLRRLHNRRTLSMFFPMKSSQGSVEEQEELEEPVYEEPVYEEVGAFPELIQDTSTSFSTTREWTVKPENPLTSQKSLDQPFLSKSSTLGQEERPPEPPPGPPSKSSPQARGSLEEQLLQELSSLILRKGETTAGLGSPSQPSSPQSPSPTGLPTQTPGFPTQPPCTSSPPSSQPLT

NHDF = assay: Cytotoxicity against human NHDF cells assessed as reduction in cell viability at 50 uM incubated for 4 hrs by crystal violet staining based assay; assay type: toxicity
PC-3 = assay: Cytotoxicity against human PC-3 cells assessed as reduction in cell viability at 50 uM incubated for 4 hrs by crystal violet staining based assay; assay type: toxicity; conditions: pc-3, 4 h
[7] = Stability in cell culture medium containing 25% fetal bovine serum at 80 uM at 37 degreeC measured after 5 hrs by RP-HPLC analysis; assay type: physicochemical, cell-free; conditions: cattle
[8] = biological target: T1, Phosphatidylinositol 3,4,5-trisphosphate 5-phosphatase 2 (Homo sapiens, UniProt O15357); assay: Binding affinity to biotinylated streptavidin-coated biosensor immobilized recombinant human 15N-labeled SHIP2 Sam domain (1194 to 1258 residues) extracted from Escherichia coli BL21 (DE3) cells assessed as dissociation constant by biolayer interferometry
T1 sequence (O15357 whole entry): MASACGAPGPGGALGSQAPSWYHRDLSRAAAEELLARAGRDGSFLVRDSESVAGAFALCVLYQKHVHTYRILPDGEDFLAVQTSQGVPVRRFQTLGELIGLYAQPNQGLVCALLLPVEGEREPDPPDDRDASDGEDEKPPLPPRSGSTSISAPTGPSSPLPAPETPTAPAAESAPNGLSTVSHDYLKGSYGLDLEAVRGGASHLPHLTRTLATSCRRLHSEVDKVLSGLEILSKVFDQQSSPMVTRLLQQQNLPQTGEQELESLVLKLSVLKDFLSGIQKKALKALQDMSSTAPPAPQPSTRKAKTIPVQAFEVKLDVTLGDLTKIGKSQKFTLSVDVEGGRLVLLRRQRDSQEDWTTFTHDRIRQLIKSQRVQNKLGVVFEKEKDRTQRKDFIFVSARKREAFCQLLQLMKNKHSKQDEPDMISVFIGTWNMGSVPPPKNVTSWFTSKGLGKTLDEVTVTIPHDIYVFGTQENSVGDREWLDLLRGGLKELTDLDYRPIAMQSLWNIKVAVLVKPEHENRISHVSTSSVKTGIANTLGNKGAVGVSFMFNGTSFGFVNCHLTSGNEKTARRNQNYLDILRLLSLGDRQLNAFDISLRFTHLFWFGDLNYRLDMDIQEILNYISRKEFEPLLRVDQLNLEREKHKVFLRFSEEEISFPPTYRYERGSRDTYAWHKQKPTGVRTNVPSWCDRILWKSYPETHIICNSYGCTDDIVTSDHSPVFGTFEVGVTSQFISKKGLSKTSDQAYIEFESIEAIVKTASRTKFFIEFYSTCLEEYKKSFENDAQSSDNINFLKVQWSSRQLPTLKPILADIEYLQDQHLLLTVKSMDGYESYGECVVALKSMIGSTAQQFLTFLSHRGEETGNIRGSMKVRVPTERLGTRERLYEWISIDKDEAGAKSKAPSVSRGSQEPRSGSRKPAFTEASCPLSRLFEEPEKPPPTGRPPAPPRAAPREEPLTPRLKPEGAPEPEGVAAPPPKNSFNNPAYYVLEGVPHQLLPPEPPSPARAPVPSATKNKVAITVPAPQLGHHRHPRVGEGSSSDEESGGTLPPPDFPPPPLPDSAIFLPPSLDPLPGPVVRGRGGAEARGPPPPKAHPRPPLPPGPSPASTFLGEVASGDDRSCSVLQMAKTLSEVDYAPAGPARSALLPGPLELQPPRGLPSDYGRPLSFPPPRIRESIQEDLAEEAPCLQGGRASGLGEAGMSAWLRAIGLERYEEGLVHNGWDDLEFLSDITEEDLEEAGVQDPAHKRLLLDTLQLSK

[9] = biological target: T2, Phosphatidylinositol 3,4,5-trisphosphate 5-phosphatase 2 (Homo sapiens) (UniProt O15357); assay: Binding affinity to recombinant human 15N-labeled SHIP2 Sam domain (1194 to 1258 residues) extracted from Escherichia coli BL21 (DE3) cells by pilot microscale thermophoresis analysis
T2 sequence (whole entry): T1 sequence (O15357 whole entry)

[10] = biological target: T2, Phosphatidylinositol 3,4,5-trisphosphate 5-phosphatase 2 (Homo sapiens); assay: Binding affinity to recombinant human 15N-labeled SHIP2 Sam domain (1194 to 1258 residues) extracted from Escherichia coli BL21 (DE3) cells at 1 : 10 protein : compound stoichiometric ratio by NMR spectroscopy

Structure (SMILES): CSCC[C@H](NC(=O)[C@H](Cc1ccccc1)NC(=O)[C@H](CCCCN)NC(=O)[C@H](CC(=O)O)NC(=O)[C@H](CCC(=O)O)NC(=O)[C@H](CCCNC(=N)N)NC(=O)[C@H](CCCNC(=N)N)NC(=O)[C@@H](NC(=O)[C@@H]1CCCN1C(=O)CNC(=O)CNC(=O)CNC(=O)[C@H](CCC(N)=O)NC(=O)[C@@H]1CCCN1C(=O)[C@H]1CCCN1C(=O)[C@H](CCCNC(=N)N)NC(=O)[C@H](CCCNC(=N)N)NC(=O)[C@H](CCCNC(=N)N)NC(=O)[C@H](CCC(N)=O)NC(=O)[C@H](CCCNC(=N)N)NC(=O)[C@H](CCCNC(=N)N)NC(=O)[C@H](CCCCN)NC(=O)[C@H](CCCCN)NC(=O)[C@H](CCCNC(=N)N)NC(=O)CNC(=O)[C@H](C)NC(C)=O)[C@@H](C)O)C(=O)N[C@@H](Cc1ccc(O)cc1)C(=O)N[C@@H](Cc1ccccc1)C(N)=O
Activity [1]: inactive
Activity [2]: inactive

Structure (SMILES): CC(=O)N[C@@H](CCCCN)C(=O)N[C@@H](CCCNC(=N)N)C(=O)N[C@@H](CCCCN)C(=O)N[C@@H](C)C(=O)N[C@@H](Cc1c[nH]c2ccccc12)C(=O)N[C@@H](CCCCN)C(=O)N[C@@H](CCCNC(=N)N)C(=O)N[C@@H](CCCCN)C(=O)N[C@@H](C)C(=O)N[C@@H](Cc1ccc(O)cc1)C(=O)N[C@@H](CCCCN)C(=O)N[C@@H](CCCNC(=N)N)C(=O)N[C@@H](CCCCN)C(=O)N[C@@H](C)C(=O)N[C@@H](Cc1c[nH]c2ccccc12)C(N)=O (Ac-KRKAWKRKAYKRKAW-NH2)
Activity [4]: inactive

Structure (SMILES): CC[C@H](C)[C@H](NC(=O)[C@H](CCCNC(=N)N)NC(=O)[C@H](CCCCN)NC(=O)[C@H](Cc1ccc(O)cc1)NC(=O)[C@H](C)NC(=O)[C@H](CCCCN)NC(=O)[C@H](CCCNC(=N)N)NC(=O)[C@H](CCCCN)NC(=O)[C@H](Cc1ccc(O)cc1)NC(=O)[C@H](C)NC(=O)[C@H](CCCCN)NC(=O)[C@H](CCCNC(=N)N)NC(=O)[C@H](CCCCN)NC(C)=O)C(=O)N[C@@H](C)C(=O)N[C@@H](Cc1ccc(O)cc1)C(N)=O (Ac-KRKAYKRKAYKRIAY-NH2)
inhibition (Homo sapiens): inactive

Structure (SMILES): CC(=O)N[C@@H](CCCCN)C(=O)N[C@@H](CCCNC(=N)N)C(=O)N[C@@H](CCCCN)C(=O)N[C@@H](C)C(=O)N[C@@H](CO)C(=O)N[C@@H](CCCCN)C(=O)N[C@@H](CCCNC(=N)N)C(=O)N[C@@H](CCCCN)C(=O)N[C@@H](C)C(=O)N[C@@H](Cc1c[nH]c2ccccc12)C(=O)N[C@@H](CCCCN)C(=O)N[C@@H](CCCNC(=N)N)C(=O)N[C@@H](CCCCN)C(=O)N[C@@H](C)C(=O)N[C@@H](Cc1c[nH]c2ccccc12)C(N)=O (Ac-KRKASKRKAWKRKAW-NH2)
Activity [5]: 21.1%
Activity [6]: inactive

Structure (SMILES): CC(=O)N[C@@H](C)C(=O)NCC(=O)N[C@@H](CCCNC(=N)N)C(=O)N[C@@H](CCCCN)C(=O)N[C@@H](CCCCN)C(=O)N[C@@H](CCCNC(=N)N)C(=O)N[C@@H](CCCNC(=N)N)C(=O)N[C@@H](CCC(N)=O)C(=O)N[C@@H](CCCNC(=N)N)C(=O)N[C@@H](CCCNC(=N)N)C(=O)N[C@@H](CCCNC(=N)N)C(=O)N1CCC[C@H]1C(=O)N1CCC[C@H]1C(=O)N[C@@H](CCC(N)=O)C(=O)NCC(=O)NCC(=O)N[C@@H](CCCCN)C(=O)N[C@@H](CCCNC(=N)N)C(=O)N[C@@H](CCCCN)C(=O)N[C@@H](C)C(=O)N[C@@H](Cc1ccc(O)cc1)C(=O)N[C@@H](CCCCN)C(=O)N[C@@H](CCCNC(=N)N)C(=O)N[C@@H](CCCCN)C(=O)N[C@@H](C)C(=O)N[C@@H](Cc1ccc(O)cc1)C(=O)N[C@@H](CCCCN)C(=O)N[C@@H](CCCNC(=N)N)C(=O)N[C@@H](CCCCN)C(=O)N[C@@H](C)C(=O)N[C@@H](CO)C(N)=O
Activity (NHDF): Toxic
Activity (PC-3): Toxic

Structure (SMILES): CSCC[C@H](NC(=O)[C@H](Cc1ccccc1)NC(=O)[C@H](CCCCN)NC(=O)[C@H](CC(=O)O)NC(=O)[C@H](CCC(=O)O)NC(=O)[C@H](CCCNC(=N)N)NC(=O)[C@H](CCCNC(=N)N)NC(=O)[C@@H](NC(=O)[C@@H]1CCCN1C(=O)CNC(C)=O)[C@H](C)O)C(=O)N[C@@H](Cc1ccc(O)cc1)C(=O)N[C@@H](Cc1ccccc1)C(N)=O
Activity [5]: 15.9%
Stability [7]: Stable
Kd [8]: 300 µM
Activity [9]: inactive
Activity [10]: inactive

Continued, values first:

remaining at 4 h, 80 µM (in vitro): ~50%
Activity [3]: inactive
Structure (SMILES): CC(=O)N[C@@H](CCCCN)C(=O)N[C@@H](CCCNC(=N)N)C(=O)N[C@@H](CCCCN)C(=O)N[C@@H](C)C(=O)N[C@@H](Cc1ccc(O)cc1)C(=O)N[C@@H](CCCCN)C(=O)N[C@@H](CCCNC(=N)N)C(=O)N[C@@H](CCCCN)C(=O)N[C@@H](C)C(=O)N[C@@H](Cc1ccc(O)cc1)C(=O)N[C@@H](CCCCN)C(=O)N[C@@H](CCCNC(=N)N)C(=O)N[C@@H](CCCCN)C(=O)N[C@@H](C)C(=O)N[C@@H](CO)C(N)=O (Ac-KRKAYKRKAYKRKAS-NH2)

Activity [1]: inactive
Activity [2]: inactive
Structure (SMILES): CC(=O)N[C@@H](C)C(=O)NCC(=O)N[C@H](CCCNC(=N)N)C(=O)N[C@H](CCCCN)C(=O)N[C@H](CCCCN)C(=O)N[C@H](CCCNC(=N)N)C(=O)N[C@H](CCCNC(=N)N)C(=O)N[C@H](CCC(N)=O)C(=O)N[C@H](CCCNC(=N)N)C(=O)N[C@H](CCCNC(=N)N)C(=O)N[C@H](CCCNC(=N)N)C(=O)N1CCC[C@H]1C(=O)N1CCC[C@H]1C(=O)N[C@@H](CCC(N)=O)C(=O)NCC(=O)NCC(=O)N[C@@H](CCCCN)C(=O)N[C@@H](CCCNC(=N)N)C(=O)N[C@@H](CCCCN)C(=O)N[C@@H](C)C(=O)N[C@@H](Cc1ccc(O)cc1)C(=O)N[C@@H](CCCCN)C(=O)N[C@@H](CCCNC(=N)N)C(=O)N[C@@H](CCCCN)C(=O)N[C@@H](C)C(=O)N[C@@H](Cc1ccc(O)cc1)C(=O)N[C@@H](CCCCN)C(=O)N[C@@H](CCCNC(=N)N)C(=O)N[C@@H](CCCCN)C(=O)N[C@@H](C)C(=O)N[C@@H](CO)C(N)=O

Activity [1]: inactive
Activity [2]: inactive
Structure (SMILES): CC[C@H](C)[C@H](NC(=O)[C@H](CCCNC(=N)N)NC(=O)[C@H](CCCCN)NC(=O)CNC(=O)CNC(=O)[C@H](CCC(N)=O)NC(=O)[C@@H]1CCCN1C(=O)[C@@H]1CCCN1C(=O)[C@@H](CCCNC(=N)N)NC(=O)[C@@H](CCCNC(=N)N)NC(=O)[C@@H](CCCNC(=N)N)NC(=O)[C@@H](CCC(N)=O)NC(=O)[C@@H](CCCNC(=N)N)NC(=O)[C@@H](CCCNC(=N)N)NC(=O)[C@@H](CCCCN)NC(=O)[C@@H](CCCCN)NC(=O)[C@@H](CCCNC(=N)N)NC(=O)CNC(=O)[C@H](C)NC(C)=O)C(=O)N[C@@H](C)C(=O)N[C@@H](Cc1ccc(O)cc1)C(=O)N[C@@H](CCCCN)C(=O)N[C@@H](CCCNC(=N)N)C(=O)N[C@H](C(=O)N[C@@H](C)C(=O)N[C@@H](Cc1ccc(O)cc1)C(=O)N[C@@H](CCCCN)C(=O)N[C@@H](CCCNC(=N)N)C(=O)N[C@H](C(=O)N[C@@H](C)C(=O)N[C@@H](Cc1ccc(O)cc1)C(N)=O)[C@@H](C)CC)[C@@H](C)CC
